Test results taken from patent publication US12410152B2, “Oxazole and thioazole-type cullin ring ubiquitin ligase compounds and uses thereof” (Proxygen GmbH, priority 2019, dated 2025).

Tested on: KBM7 WT cells (global proteome)
Test: Quantitative expression proteomics (TMT isobaric tagging), drug vs DMSO
Type: cell-based, human
Settings: for number of proteins significantly downregulated (log2FC < -0.3), destabilized proteins / number of downregulated proteins known to be implicated in KBM7 proliferation (essential for KBM7 viability): KBM7 cells, 12 hours; for number of proteins significantly downregulated (log2FC < -0.3), destabilized proteins: ~10xEC50, 7,903 proteins quantified; for number of downregulated proteins known to be implicated in KBM7 proliferation (essential for KBM7 viability): essentiality from Hart et al. 2017
Source text: The mechanism by which the assayed molecules re-program a functional CRL4B complex based on the data shown could be that drug binding to CUL4B recruits a neo-substrate directly to the cullin backbone. Alternatively, drug binding could stabilize CUL4B function to boost time intervals where a functionally competent CUL4B complexes can be formed. Here, the word “functional” implies that the CUL4B backbone of this complex needs to be neddylated, and a CUL4B associated E2 ubiquitin-conjugating enzyme (UBE2G1) needs to be bound. FIG. 9 outlines one possible mechanism. Both predicted mechanisms of action would result in a functionally altered CRL4B complex, and thus an altered stability of drug-induced (neo-) substrates. In order to identify target proteins with a decreased abundance or, in other words, target proteins that become degraded by CRL4B after drug treatment, global proteome composition was measured using quantitative expression proteomics (TMT-labeling). In brief, KBM7 cells were drug treated for 12 hours, lysed, and subjected to isobaric tagging. Ensuing proteomics analysis quantified a total of 7,903 proteins at a minimum spectral count of 2. […] Data on essentiality are taken from Hart et al., G3, August 2017 (PMID: 28655737).
50×10^6 KBM7^WT cells per condition were collected, washed four times with ice-cold PBS, the supernatant aspirated and pellets snap-frozen in liquid N2. Each washed cell pellet was lysed separately in 40 μL of freshly prepared lysis buffer as previously described (see Mayor-Ruiz et al., Mol Cell 2019)
Offline Fractionation via RP-HPLC at high pH and 2D-RP/RP Liquid Chromatography Mass Spectrometry were performed as previously described (see Mayor-Ruiz et al., Mol Cell 2019).
Acquired raw data files were processed using the Proteome Discoverer 2.2.0 platform, utilizing the Sequest HT database search engine and Percolator validation software node (V3.04) to remove false positives with a false discovery rate (FDR) of 1% on peptide and protein level under strict conditions. Searches were performed with full tryptic digestion against the human SwissProt database v2017.06 with up to two allowed miscleavage sites. Oxidation (+15.9949 Da) of methionine was set as variable modification, whilst carbamidomethylation (+57.0214 Da) of cysteine residues and TMT 6-plex labelling of peptide N-termini and lysine residues were set as fixed modifications. Data was searched with mass tolerances of ±10 ppm and ±0.02 Da on the precursor and fragment ions, respectively. Results were filtered to include peptide spectrum matches (PSMs) with Sequest HT cross-correlation factor (Xcorr) scores of […] and high peptide confidence assigned by Percolator. MS^2 signal-to-noise values (S/N) values of TMT reporter ions were used to estimate peptide/protein abundance changes. PSMs with precursor isolation interference values of ≥ 50% and average TMT-reporter ion S/N≤10 were excluded from quantitation. Only unique peptides were used for TMT quantitation as well as for TOP3 label-free quantitation. Isotopic impurity correction and TMT channel-normalization based on total peptide amount were applied. For statistical analysis and p-value calculation, the integrated ANOVA hypothesis test was used. TMT ratios with p-values below 0.01 were considered as significant. Only proteins with >1 peptide detected and >1 unique peptide detected were considered for further analysis. For the calling of destabilized proteins, a log 2 fold change threshold (drug/DMSO) of −0.3 was applied.
Comparison of overall proteome-wide changes in KBM7 cells treated with IC020772.1 (2.5 μM), IC021313.2 (7 μM) or T6938051 (3.5 μM) for 5 h and 12h, using quantitative proteomics based on isobaric tagging.
The protein names in Table 4, Table 5 and Table 6 refer to the protein names as provided by HUGO Gene Nomenclature Committee (HGNC) database. […]

O=C(CSc1nc2ccccc2[nH]1)Nc1ccc(Cl)cn1 [IC021313.2]
183: number of downregulated proteins known to be implicated in KBM7 proliferation (essential for KBM7 viability)
−0.3022: logFC (IC021313.2/DMSO) (protein EPN1 (Q9Y6I3-2), essential: false) | logFC (IC021313.2/DMSO) (protein FAM122A (Q96E09), essential: true) | logFC (IC021313.2/DMSO) (protein GTF2H1 (P32780-1), essential: true) | logFC (IC021313.2/DMSO) (protein KIF15 (Q9NS87-1), essential: false) | logFC (IC021313.2/DMSO) (protein PHF8 (Q9UPP1-1), essential: false) | logFC (IC021313.2/DMSO) (protein PO1A (Q8NBT0-1), essential: false) | logFC (IC021313.2/DMSO) (protein PSD4 (Q8NDX1-1), essential: false) | logFC (IC021313.2/DMSO) (protein PUS3 (Q9BZE2), essential: false) | logFC (IC021313.2/DMSO) (protein PYM1 (Q9BRP8-1), essential: false) | logFC (IC021313.2/DMSO) (protein RASSF5 (Q8WWW0-2), essential: false) | logFC (IC021313.2/DMSO) (protein ZWILCH (Q9H900-1), essential: false)
−0.3147: logFC (IC021313.2/DMSO) (protein CIT (O14578-4), essential: false) | logFC (IC021313.2/DMSO) (protein CREB1 (P16220-1), essential: false) | logFC (IC021313.2/DMSO) (protein FADS1 (O60427-1), essential: false)
−0.3111: logFC (IC021313.2/DMSO) (protein ALKBH4 (Q9NXW9-1), essential: false) | logFC (IC021313.2/DMSO) (protein ATXN7L3B (Q96GX2), essential: false) | logFC (IC021313.2/DMSO) (protein BMT2 (Q1RMZ1), essential: false) | logFC (IC021313.2/DMSO) (protein DSG2 (Q14126), essential: false) | logFC (IC021313.2/DMSO) (protein NDRG3 (Q9UGV2-1), essential: false) | logFC (IC021313.2/DMSO) (protein PFDN5 (Q99471-1), essential: false) | logFC (IC021313.2/DMSO) (protein PLSCR1 (O15162-1), essential: false) | logFC (IC021313.2/DMSO) (protein SKP2 (Q13309-1), essential: false) | logFC (IC021313.2/DMSO) (protein SLC10A4 (Q96EP9), essential: false)
−0.3129: logFC (IC021313.2/DMSO) (protein ALKBH3 (Q96Q83-1), essential: false) | logFC (IC021313.2/DMSO) (protein CCNC (P24863-1), essential: false) | logFC (IC021313.2/DMSO) (protein CHMP4B (Q9H444), essential: true) | logFC (IC021313.2/DMSO) (protein CUEDC2 (Q9H467), essential: false) | logFC (IC021313.2/DMSO) (protein DGCR14 (Q96DF8), essential: true) | logFC (IC021313.2/DMSO) (protein EIF4B (P23588-1), essential: false) | logFC (IC021313.2/DMSO) (protein GUCY1A3 (Q02108-1), essential: false) | logFC (IC021313.2/DMSO) (protein NUFIP1 (Q9UHK0), essential: true) | logFC (IC021313.2/DMSO) (protein TANC2 (Q9HCD6-2), essential: false)
−0.3004: logFC (IC021313.2/DMSO) (protein AKAP11 (Q9UKA4), essential: false) | logFC (IC021313.2/DMSO) (protein C10orf88 (Q9H8K7), essential: false) | logFC (IC021313.2/DMSO) (protein DCUN1D4 (Q92564-3), essential: false) | logFC (IC021313.2/DMSO) (protein ENTPD6 (O75354-1), essential: false) | logFC (IC021313.2/DMSO) (protein PPIL4 (Q8WUA2), essential: false) | logFC (IC021313.2/DMSO) (protein PVR (P15151-1), essential: false) | logFC (IC021313.2/DMSO) (protein RAD54L (Q92698), essential: false) | logFC (IC021313.2/DMSO) (protein SLCO4A1 (Q96BD0-1), essential: false) | logFC (IC021313.2/DMSO) (protein SUV39H1 (O43463-2), essential: false) | logFC (IC021313.2/DMSO) (protein USP12 (O75317), essential: false) | logFC (IC021313.2/DMSO) (protein WDR76 (Q9H967), essential: false) | logFC (IC021313.2/DMSO) (protein ZNF770 (Q6IQ21), essential: false)
−0.3094: logFC (IC021313.2/DMSO) (protein NCAPD2 (Q15021), essential: true) | logFC (IC021313.2/DMSO) (protein RPS17 (P08708), essential: true) | logFC (IC021313.2/DMSO) (protein TFAP4 (Q01664), essential: true)
839: number of proteins significantly downregulated (log2FC < -0.3), destabilized proteins

Cc1ccc(C(=O)N2CSCC2C(=O)N=c2[nH]cc(C)s2)o1 (stereo not drawn) [Compound T6938051]
793: number of proteins significantly downregulated (log2FC < -0.3), destabilized proteins
142: number of downregulated proteins known to be implicated in KBM7 proliferation (essential for KBM7 viability)
T6938051: 793 proteins: number of proteins with log2FC < −0.3 (T6938051 vs DMSO)
log2FC < −0.3 (142 essential proteins): number of essential proteins among proteins with log2FC < −0.3 (T6938051 vs DMSO, essential = implicated in KBM7 proliferation)
−0.3004: log2FC (T6938051/DMSO) (protein ABCF2 (accession Q9UG63-2), expression proteomics, drug vs DMSO, essential: false)
